Earlier results on ten compounds are cited in US4868155A, “Dipeptidyl 4-0-,6-0-acyl-2-amino-2-deoxy-D-glucose compositions and methods of use in AIDS-immunocompromised human hosts” (Merck & Co., Inc., priority 1987, dated 1989).

Where two headings read alike, the source gives them in different places.

One data set relates to AIDS related virus. The conditions noted are these: for clinical benefit (symptoms, immune function) in AIDS / ARC patients: clinical trials; for virus replication in humans: patients.
Data set [1] deals with Mycobacterium avium intracellulare. As to conditions: AIDS patients infected with Mycobacterium avium intracellulare.
The conditions of data set [2]: in vivo.
The test system of data set [3] is reverse transcriptase in several retroviruses. As to conditions: in vitro.

Take `CC(C)(N1CC1C#N)N1CC1C(N)=O` (stereo not shown) [Azimexon]: the “toxicity / side effects” value (patients) is “mild hemolysis”. Further, in the data set on AIDS related virus, the “clinical benefit (symptoms, immune function) in AIDS / ARC patients” value (“clinical benefit … in AIDS / ARC patients” below) is “improvements in symptoms and immune function in patients with ARC but not AIDS”.

On to `CO[C@H]1/C=C/O[C@@]2(C)Oc3c(C)c(O)c4c(c3C2=O)C2=NC3(CCN(CC(C)C)CC3)NC2=C(NC(=O)/C(C)=C\C=C\[C@H](C)[C@H](O)[C@@H](C)[C@@H](O)[C@@H](C)[C@H](OC(C)=O)[C@@H]1C)C4=O` [Ansamycin, rifabutin], for which the “efficacy against opportunistic infection” value in data set [1] is “some efficacy”.

`CC(C)(S)[C@@H](N)C(=O)O` [D Penicillamine, 3-mercapto D valine]: for the setting “13 AIDS patients with perpetually swollen glands”, the T cell levels result is “temporarily depressed T cell levels”. For the same compound, the “virus replication in humans” value in the data set with AIDS related virus is “Inhibits HIV reproduction in humans”.

For the compound `Cc1cn([C@H]2C[C@H](N=[N+]=[N-])[C@@H](CO)O2)c(=O)[nH]c1=O` [Azidothymidine, 3' azido 3'-deoxythymidine], the oral absorption result in data set [2] was “Well absorbed orally”.

For the compound `NC(=O)c1ncn([C@@H]2O[C@H](CO)[C@@H](O)[C@H]2O)n1` [Ribavirin, 1 8 D ribofuranosyl-1,2,4-triazole-3-carboxamide], under “human, in vivo”, the safety profile entry is “acceptable”. Also, in the data set on AIDS related virus, the “clinical benefit … in AIDS / ARC patients” value was “improved immune function” and the “virus replication in humans” value is listed as “inhibited viral replication”.

In the case of `Cc1ccc(C(=O)Nc2ccc(S(=O)(=O)O)c3cc(S(=O)(=O)O)cc(S(=O)(=O)O)c23)cc1NC(=O)c1cccc(NC(=O)Nc2cccc(C(=O)Nc3cc(C(=O)Nc4ccc(S(=O)(=O)O)c5cc(S(=O)(=O)O)cc(S(=O)(=O)O)c45)ccc3C)c2)c1` [Suramin], the “clinical benefit … in AIDS / ARC patients” value in the data set with AIDS related virus is given as “little or no evidence of clinical improvement or immunologic recovery”.

α-Interferon: the “tumor regression in AIDS-related Kaposi's sarcoma” value with AIDS related virus (AIDS-related Kaposi's sarcoma cases) is listed as “induced tumor regression in some AIDS-related Kaposi's sarcoma cases”.

On to `CC(=O)Nc1ccc(C(=O)O)cc1.CC(=O)Nc1ccc(C(=O)O)cc1.CC(=O)Nc1ccc(C(=O)O)cc1.CC(O)CN(C)C.CC(O)CN(C)C.CC(O)CN(C)C.O=c1[nH]cnc2c1ncn2[C@@H]1O[C@H](CO)[C@@H](O)[C@H]1O` [Inosine granobex], for which, in the data set with AIDS related virus, the “clinical benefit … in AIDS / ARC patients” value is reported as “improve immune function in ARC patients”.

For the compound “ammonium 21 tungsto 9 antimoniate [HPA-23]”, in data set [3], the “inhibition of reverse transcriptase in several retroviruses” value was “Inhibits reverse transcriptase in several retroviruses in vitro”. Also, the “clinical benefit … in AIDS / ARC patients” value in the data set with AIDS related virus was “no therapeutic benefit”. Besides, the “growth of HIV” value in the data set on HIV is reported as “some tendency to check the growth of HIV”.

With `O=C(O)P(=O)(O)O` [Foscarnet, trisodium phosphonoformate], the “toxicity / side effects” value (human, in vivo) is “serious side effects”.
